Experimental data: US7250408B2, “Glucocorticoid receptor antagonists for prophylaxis and therapy of glucocorticoid-mediated hypogonadism, of sexual dysfunction and/or infertility” (Bayer Schering Pharma AG, priority 2002, dated 2007)

Assays:
[1] = molecular target: T1, Progesterone Receptor (Homo sapiens, UniProt P06401); assay: Progesterone receptor binding, relative binding affinity (RBA); settings: RBA relative to progesterone = 100
T1 sequence (P06401 1-933): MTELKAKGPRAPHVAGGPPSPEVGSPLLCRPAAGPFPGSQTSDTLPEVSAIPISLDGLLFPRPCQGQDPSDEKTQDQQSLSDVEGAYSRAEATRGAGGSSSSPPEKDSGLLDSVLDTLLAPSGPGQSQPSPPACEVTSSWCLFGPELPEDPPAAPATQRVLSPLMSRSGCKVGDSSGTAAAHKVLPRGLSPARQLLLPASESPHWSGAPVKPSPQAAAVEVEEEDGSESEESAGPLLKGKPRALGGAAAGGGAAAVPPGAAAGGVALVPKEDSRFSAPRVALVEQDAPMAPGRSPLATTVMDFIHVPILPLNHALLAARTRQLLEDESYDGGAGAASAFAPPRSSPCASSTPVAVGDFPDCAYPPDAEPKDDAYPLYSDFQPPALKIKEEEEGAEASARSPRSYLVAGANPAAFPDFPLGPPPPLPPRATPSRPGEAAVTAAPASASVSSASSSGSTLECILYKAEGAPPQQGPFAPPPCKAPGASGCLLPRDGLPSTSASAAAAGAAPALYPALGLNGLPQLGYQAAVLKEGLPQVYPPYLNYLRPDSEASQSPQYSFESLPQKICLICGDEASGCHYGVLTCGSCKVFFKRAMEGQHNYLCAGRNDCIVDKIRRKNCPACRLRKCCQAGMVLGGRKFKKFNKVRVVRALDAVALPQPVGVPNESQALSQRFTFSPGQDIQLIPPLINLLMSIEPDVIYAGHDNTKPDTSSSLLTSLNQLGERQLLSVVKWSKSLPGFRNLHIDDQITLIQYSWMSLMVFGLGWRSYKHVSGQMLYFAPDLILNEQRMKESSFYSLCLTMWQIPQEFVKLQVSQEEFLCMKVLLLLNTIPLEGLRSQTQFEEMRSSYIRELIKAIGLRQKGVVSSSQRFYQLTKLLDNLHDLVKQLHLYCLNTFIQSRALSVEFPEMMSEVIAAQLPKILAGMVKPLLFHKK

[2] = molecular target: T2, Glucocorticoid Receptor (Homo sapiens, UniProt P04150); assay: Glucocorticoid receptor binding, relative binding affinity (RBA); settings: RBA relative to dexamethasone = 100
T2 sequence (P04150 1-777): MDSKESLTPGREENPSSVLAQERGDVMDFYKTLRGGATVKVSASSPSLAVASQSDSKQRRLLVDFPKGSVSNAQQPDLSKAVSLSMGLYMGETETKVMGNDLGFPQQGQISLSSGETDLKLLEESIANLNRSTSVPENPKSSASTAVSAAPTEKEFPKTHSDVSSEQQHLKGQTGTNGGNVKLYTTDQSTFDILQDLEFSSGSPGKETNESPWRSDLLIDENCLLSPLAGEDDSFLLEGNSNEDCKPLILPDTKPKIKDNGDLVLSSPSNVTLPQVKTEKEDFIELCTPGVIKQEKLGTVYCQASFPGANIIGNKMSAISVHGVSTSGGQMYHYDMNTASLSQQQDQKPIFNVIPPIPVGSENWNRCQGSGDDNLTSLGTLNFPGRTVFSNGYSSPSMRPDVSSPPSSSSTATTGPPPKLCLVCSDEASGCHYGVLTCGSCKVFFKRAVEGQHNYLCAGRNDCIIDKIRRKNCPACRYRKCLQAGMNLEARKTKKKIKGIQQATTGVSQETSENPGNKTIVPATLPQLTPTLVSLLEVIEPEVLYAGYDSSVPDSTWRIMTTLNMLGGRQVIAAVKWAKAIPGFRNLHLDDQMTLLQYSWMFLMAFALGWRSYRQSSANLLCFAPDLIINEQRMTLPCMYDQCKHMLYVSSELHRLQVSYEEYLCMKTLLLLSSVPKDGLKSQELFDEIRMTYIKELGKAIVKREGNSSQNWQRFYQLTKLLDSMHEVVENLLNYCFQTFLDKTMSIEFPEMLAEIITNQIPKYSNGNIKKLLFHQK

Q: With `COc1cccc(C2CC3(C)C(CCC3(O)C#Cc3ccc(OC(C)=O)cc3)C3CCC4=CC(=O)CCC4=C23)c1` (centres unmarked) [Example 4] as the compound, how does the “Relative Binding Affinity to Progesterone Receptor, %” value [1] read?
A: 2.8%

Q: What about the “Relative Binding Affinity to Glucocorticoid Receptor, %” value [2] of the same compound?
A: 98%

Q: What does the source list for `COc1cccc(C2CC3(C)C(CCC3(O)C#Cc3ccc(-n4cccc4)cc3)C3CCC4=CC(=O)CCC4=C23)c1` (centres unmarked) [Example 5]?
A: Relative Binding Affinity to Progesterone Receptor, % [1]: 3.4%; Relative Binding Affinity to Glucocorticoid Receptor, % [2]: 57%

Q: With `COc1cccc(C2CC3(C)C(CCC3(O)C#Cc3ccc(O)cc3)C3CCC4=CC(=O)CCC4=C23)c1` (centres unmarked) [Example 6] as the compound, how does the “Relative Binding Affinity to Progesterone Receptor, %” value [1] read?
A: 2.9%

Q: And the “Relative Binding Affinity to Glucocorticoid Receptor, %” value [2]?
A: 109%

Q: With `COc1cccc(C2CC3(C)C(CCC3(O)C#Cc3cccc(C=NO)c3)C3CCC4=CC(=O)CCC4=C23)c1` (stereo not drawn) [Example 10, 3-E-[17-Hydroxy-11β-[3-(methoxy)phenyl)-19-nor-3-keto-17α-pregna-4,9-dien-20-yn-21-yl]benzaldoxime] as the compound, how does the “Relative Binding Affinity to Progesterone Receptor, %” value [1] read?
A: 10.4%

Q: And the “Relative Binding Affinity to Glucocorticoid Receptor, %” value [2]?
A: 148%

Q: How did the “Relative Binding Affinity to Progesterone Receptor, %” value [1] turn out when `COc1cccc(C2CC3(C)C(CCC3(O)C#Cc3ccc(S(C)(=O)=O)cc3)C3CCC4=CC(=O)CCC4=C23)c1` (stereo not drawn) [Example 7, 17-Hydroxy-21-(4-mesylphenyl)-11,6-(3-methoxyphenyl)-19-nor-17α-pregna-4,9-dien-20-yn-3-one] was run?
A: 1.0%

Q: And the “Relative Binding Affinity to Glucocorticoid Receptor, %” value [2]?
A: 155%

Q: Which results are given for `COc1cccc(C2CC3(C)C(CCC3(O)C#CC(C)(C)C)C3CCC4=CC(=O)CCC4=C23)c1` (stereo not drawn) [Example 1, 21-tert.Butyl-17-hydroxy-11β-(3-methoxyphenyl)-19-nor-17α-pregna-4,9-dien-20-yn-3-one]?
A: Relative Binding Affinity to Progesterone Receptor, % [1]: 3.4%; Relative Binding Affinity to Glucocorticoid Receptor, % [2]: 85%

Q: How did the “Relative Binding Affinity to Progesterone Receptor, %” value [1] turn out when `COc1cccc(C2CC3(C)C(CCC3(O)C#Cc3cccc(C=O)c3)C3CCC4=CC(=O)CCC4=C23)c1` (stereo not drawn) [Example 3, 3-{17-Hydroxy-11β-[3-(methoxy)phenyl]-3-keto-19-nor-17α-pregna-4,9-dien-20-yn-21-yl}benzaldehyde] was run?
A: 4.3%

Q: And the “Relative Binding Affinity to Glucocorticoid Receptor, %” value [2]?
A: 159%
